Inhibition data for nine molecules are collected here from US8106055B2, “Substituted amide compounds” (Gruenenthal GmbH, priority 2007, dated 2012).

Read-outs that look alike come from different tables or passages of the source.

One assay has as its target T1, human μ opiate receptor (Homo sapiens, UniProt P35372).
T1 construct: purchased PerkinElmer Life Sciences, Zaventem, Belgium RB-HOM; host or cells: CHO-K1 cells (membrane preparation)
As to the kind of experiment: Affinity for the human μ opiate receptor ([3H]-naloxone displacement, CHO-K1 receptor membrane preparation, SPA). The following applies: 1.5 h, Table 3, to be read in the same way as Table 1; test concentration 1 μM; read-out: μ. In kind it is binding. Summed up: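 Displacement of 1 nmol/l [3H]-naloxone measured by SPA counting after 90 min at room temperature, using human μ receptor CHO-K1 membrane preparation in Tris-HCl buffer with 0.06% BSA. Test substances at 1 μmol/l give % inhibition; dilution series yield IC50, then Ki (Cheng-Prusoff); non-specific binding with 100 μmol/l naloxone.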

In assay [1] the target is T2, human bradykinin 1 receptor (B1R) (Homo sapiens, UniProt P46663).
T2 construct: expressed in transfected cells; host or cells: CHO K1 cells
T2 sequence (P46663 1-353): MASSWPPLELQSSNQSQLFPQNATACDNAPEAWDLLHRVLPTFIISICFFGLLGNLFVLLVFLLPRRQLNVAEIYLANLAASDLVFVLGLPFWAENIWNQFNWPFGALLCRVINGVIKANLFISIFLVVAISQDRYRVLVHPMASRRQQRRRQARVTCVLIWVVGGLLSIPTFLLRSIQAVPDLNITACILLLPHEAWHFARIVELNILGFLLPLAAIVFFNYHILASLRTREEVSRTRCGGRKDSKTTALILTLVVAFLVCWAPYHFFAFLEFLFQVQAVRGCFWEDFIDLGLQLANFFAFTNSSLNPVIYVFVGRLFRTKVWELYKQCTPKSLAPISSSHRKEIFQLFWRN
As to the kind of experiment: Functional investigation on the human bradykinin 1 receptor (B1R), Ca2+ FLIPR assay in CHO K1 hB1R cells. In kind it is cell-based. The following applies: CHO-K1, B1R antagonism human, test substance 10 μM, read-out: B1R Ant. h [10 μM] % Inhibition. Summed up: (§1)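 Fluo-4 Ca2+ readout, peak fluorescence. Stable CHO K1 transfectants; compound pre-incubated 10-20 min, then EC80 agonist—Lys-Des-Arg9-BK for hB1R, Des-Arg9-BK for rB1R. % inhibition vs maximal inhibition; IC50 from multiple concentrations, duplicate/triplicate, ≥2 independent runs.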

Assay [2] deals with T3, bradykinin 1 receptor (B1R) of the rat (Rattus norvegicus, UniProt P97583).
T3 construct: expressed in transfected cells; host or cells: CHO K1 cells
T3 sequence (P97583 1-337): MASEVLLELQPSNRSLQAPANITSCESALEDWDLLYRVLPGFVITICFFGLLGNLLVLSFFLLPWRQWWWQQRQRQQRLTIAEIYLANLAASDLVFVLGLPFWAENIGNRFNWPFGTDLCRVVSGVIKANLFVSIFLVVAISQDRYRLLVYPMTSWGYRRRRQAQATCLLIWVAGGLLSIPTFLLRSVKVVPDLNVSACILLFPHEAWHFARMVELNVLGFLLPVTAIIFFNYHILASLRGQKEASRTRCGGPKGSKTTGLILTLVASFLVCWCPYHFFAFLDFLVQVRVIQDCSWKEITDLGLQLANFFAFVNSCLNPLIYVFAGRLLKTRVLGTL
Kind of assay: Functional investigation on the rat bradykinin 1 receptor (B1R), Ca2+ FLIPR assay in CHO K1 rB1R cells. In kind it is cell-based. The following applies: CHO-K1, B1R antagonism rat, test substance 10 μM, read-out: B1R Ant. r [10 μM] % Inhibition. Summed up:
as §1

The mark [3] stands for this setting: % inhibition compared with the maximum achievable inhibition.

T1 sequence (P35372 whole entry): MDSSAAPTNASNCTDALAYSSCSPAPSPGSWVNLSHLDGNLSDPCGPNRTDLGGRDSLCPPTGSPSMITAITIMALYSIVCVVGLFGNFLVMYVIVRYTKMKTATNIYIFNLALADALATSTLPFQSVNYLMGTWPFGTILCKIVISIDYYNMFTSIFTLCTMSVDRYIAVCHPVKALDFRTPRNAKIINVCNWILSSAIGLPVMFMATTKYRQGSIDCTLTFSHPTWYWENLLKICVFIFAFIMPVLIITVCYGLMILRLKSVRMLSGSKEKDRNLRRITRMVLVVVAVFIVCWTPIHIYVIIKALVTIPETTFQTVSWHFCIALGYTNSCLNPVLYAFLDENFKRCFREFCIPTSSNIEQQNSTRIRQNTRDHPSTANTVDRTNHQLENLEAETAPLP

`CN(CCOCC(=O)NCC1CCC(C(c2ccccc2)N2CCOCC2)CC1)S(=O)(=O)c1c(Cl)cc(Cl)cc1Cl` (stereo not drawn) [Example 639, N-((4-(morpholino(phenyl)methyl)cyclohexyl)methyl)-2-(2-(2,4,6-trichloro-N-methylphenylsulfonamido)ethoxy)acetamide]: at human μ opiate receptor, the inhibition at 1 µM came to 3%. In addition, the inhibition at 10 µM in assay [1] (Ca2+ FLIPR, CHO K1 hB1R cells) turned out to be 53%; in assay [2] (Ca2+ FLIPR, CHO K1 rB1R cells) it was 41%.

As to `COc1cc(C)c(S(=O)(=O)N(C)CCOCC(=O)N2CCC(C(CCc3ccccc3)N3CCN(C)CC3)CC2)c(C)c1` (stereo not drawn) [Example 801, 4-methoxy-N,2,6-trimethyl-N-(2-(2-(4-(1-(4-methylpiperazin-1-yl)-3-phenylpropyl)piperidin-1-yl)-2-oxoethoxy)ethyl)benzenesulfonamide], the inhibition at 1 µM on human μ opiate receptor is 21%. In addition, the results for the inhibition at 10 µM in assay [1] (setting [3]) and in assay [2] (setting [3]) were 106% and 97%, respectively.

For `COc1cc(C)c(S(=O)(=O)N2CCCC(COCC(=O)NC3CCC(C(c4ccccc4)N4CCN(C)CC4)CC3)C2)c(C)c1` (stereo not drawn) [Example 702, 2-((1-(4-methoxy-2,6-dimethylphenylsulfonyl)piperidin-3-yl)methoxy)-N-(4-((4-methylpiperazin-1-yl)(phenyl)methyl)cyclohexyl)acetamide], the inhibition at 1 µM on human μ opiate receptor came to 19%. For the same molecule, the inhibition at 10 µM in assay [1] (Ca2+ FLIPR, CHO K1 hB1R cells) turned out to be 70%; in assay [2] (Ca2+ FLIPR, CHO K1 rB1R cells) it was 74%.

For `O=C(COCC1CCCCN1S(=O)(=O)c1c(Cl)cc(Cl)cc1Cl)NCC1CCC(C(CCc2ccccc2)N2CCOCC2)CC1` (stereo not drawn) [Example 754, N-((4-(1-morpholino-3-phenylpropyl)cyclohexyl)methyl)-2-((1-(2,4,6-trichlorophenylsulfonyl)piperidin-2-yl)methoxy)acetamide], the inhibition at 1 µM at human μ opiate receptor came out at 2%. Further, the inhibition at 10 µM was determined as 47% in assay [1] (Ca2+ FLIPR, CHO K1 hB1R cells) and 76% in assay [2] (Ca2+ FLIPR, CHO K1 rB1R cells).

On to `CN1CCN(C(c2ccccc2)C2CCC(NC(=O)COC3CCN(S(=O)(=O)c4c(Cl)cc(Cl)cc4Cl)C3)CC2)CC1` (stereo not drawn) [Example 686, N-(4-((4-methylpiperazin-1-yl)(phenyl)methyl)cyclohexyl)-2-(1-(2,4,6-trichlorophenylsulfonyl)pyrrolidin-3-yloxy)acetamide], for which, at human μ opiate receptor, the inhibition at 1 µM was 30%. Also, the inhibition at 10 µM came to 80% in assay [1] (Ca2+ FLIPR, CHO K1 hB1R cells) and 29% in assay [2] (Ca2+ FLIPR, CHO K1 rB1R cells).

With `COc1cc(C)c(S(=O)(=O)N2CCCC(OCC(=O)NCC3CCC(C(CCc4ccccc4)N4CCCC4)CC3)C2)c(C)c1` (stereo not drawn) [Example 731, 2-(1-(4-methoxy-2,6-dimethylphenylsulfonyl)piperidin-3-yloxy)-N-((4-(3-phenyl-1-(pyrrolidin-1-yl)propyl)cyclohexyl)methyl)acetamide], the inhibition at 1 µM at human μ opiate receptor is 49%. For the same molecule, the inhibition at 10 µM in assay [1] (Ca2+ FLIPR, CHO K1 hB1R cells) is 101%; in assay [2] (Ca2+ FLIPR, CHO K1 rB1R cells), 80%.

For the molecule `COc1cc(C)c(S(=O)(=O)N(C)CCOCC(=O)NC2CCC(C(c3ccccc3)N3CCN(C)CC3)CC2)c(C)c1` (stereo not drawn) [Example 682, 2-(2-(4-methoxy-N,2,6-trimethylphenylsulfonamido)ethoxy)-N-(4-((4-methylpiperazin-1-yl)(phenyl)methyl)cyclohexyl)acetamide], the inhibition at 1 µM at human μ opiate receptor turned out to be 36%. Moreover, the inhibition at 10 µM in assay [1] (Ca2+ FLIPR, CHO K1 hB1R cells) was determined as 104%; in assay [2] (Ca2+ FLIPR, CHO K1 rB1R cells) it was 103%.

Take `O=C(COCC1CCCN1S(=O)(=O)c1c(Cl)cc(Cl)cc1Cl)NCC1CCC(C(c2ccccc2)N2CCCC2)CC1` (stereo not drawn) [Example 651, N-((4-(phenyl(pyrrolidin-1-yl)methyl)cyclohexyl)methyl)-2-((1-(2,4,6-trichlorophenylsulfonyl)pyrrolidin-2-yl)methoxy)acetamide]: on human μ opiate receptor, the inhibition at 1 µM came out at 83%. In addition, the inhibition at 10 µM in assay [1] (Ca2+ FLIPR, CHO K1 hB1R cells) turned out to be 103%; in assay [2] (Ca2+ FLIPR, CHO K1 rB1R cells) it was 105%.

Consider `COc1cc(C)c(S(=O)(=O)N2CCCCC2COCC(=O)NC2CCC(C(CCc3ccccc3)N3CCCCC3)CC2)c(C)c1` (stereo not drawn) [Example 734, 2-((1-(4-methoxy-2,6-dimethylphenylsulfonyl)piperidin-2-yl)methoxy)-N-(4-(3-phenyl-1-(piperidin-1-yl)propyl)cyclohexyl)acetamide], for which the inhibition at 1 µM on human μ opiate receptor came to 80%. For the same molecule, the inhibition at 10 µM in assay [1] (Ca2+ FLIPR, CHO K1 hB1R cells) turned out to be 104%; in assay [2] (Ca2+ FLIPR, CHO K1 rB1R cells), 104%.
